From patent US7465738B2, “Compounds useful as promoters of SMN2” (Vertex Pharmaceuticals Incorporated, priority 2003, dated 2008) come the findings set out here.

Molecules are shown by their SMILES.

The first test concerns SMN2 promoter. Briefly: SMN2 promoter-β-lactamase (BLA) assay in NSC-34 cells. The class given is cell-based, mouse. The conditions noted are these: 15 NSC-34 SMN2-promoter-BLA clones with low BLA activity. The source says: Compounds were screened for their ability to increase SMN2 gene transcription. In general the screening method of the invention involves the use of an SMN2 promoter-β-lactamase (BLA) assay in NSC-34 cells. […] This construct was transfected into the NSC-34 cells and a stable pool of SMN2-promoter-BLA cells was generated. […] Optimized protocols are presented in the procedures below. […] Subculture Protocol for and the […]-Bla Cell Line (#5.3) and the SMN2 Promoter-Bla Cell Line (#11). […] Cells were kept at a density between 50,000 and 500,000/ml and were fed every three days with DMEM 5% FCS and incubated at 37° C., 5% CO2 and 90% humidity. • b. Cells were then plated at low density (50,000 cells/ml). • c. […] Cells were fed by manually pipetting the cells, and passaging the cells 1 to 10 to a new flask. […] Standard Assay Protocol #1 for SMN2 Promoter Assays in 96-Well Plates: • e. Cells were washed twice with cold PBS by spinning down and resuspending at 250,000 cells/ml. • f. Cells were resuspended in DMEM 0% FCS at a density of 500,000 cells/ml. • g. Cells were then dispensed 100 μl cells per well of a 96-well, black wall, clear bottom assay plate (Corning Costar, Cat. # 3904). Plate can be pre-formatted with test compounds. • h. […] Cells were incubated for 1 hour in the dark at room temperature. • 6×CCF2-AM Staining Solution: • 60 μl of Sol B • 6 μl of CCF2-AM (1 mM) • 12 μl of Probenecid (1 M, Sigma, Cat # 8761) • 1 μl of Sol C • j. Assay plates were read on a fluorimeter (for example, the Cytofluor 4000 from Perceptive Biosystems) using the following two settings: 460/40 nm emission with 395/25 nm excitation, and 530/25 nm emission with 395/25 nm excitation. • k. […] Standard Assay Protocol #2 for SMN2 Promoter Assays in 96-Well Plates: • l. Cells were washed twice with cold PBS by spinning down and resuspending at 250,000 cells/ml. • m. Cells were then resuspended in DMEM 1% FCS Charcoal Dextran-treated (Hyclone, Cat # SH30038.05) at a density of […]. • n. Cells were then incubated for 24 hours at 37° C. • o. 100 μl cells per well were then dispensed in a 96-well, black wall, clear bottom assay plate (Corning Costar, Cat. # 3904). Plate can be pre-formatted with test compounds. • p. […] Cells were incubated for one hour in the dark at room temperature. • 6×CCF2-AM Staining Solution: • 60 μl of Sol B • 6 μl of CCF2-AM (1 mM) • 12 μl of Probenecid (1 M, Sigma, Cat# 8761) • 1 μl of SolC • r. Assay plates were read on a fluorimeter (for example, the Cytofluor 4000 from Perceptive Biosystems) using the following two settings: 460/40 nm emission with 395/25 nm excitation, and 530/25 nm emission with 395/25 nm excitation. • s.
With `CC(C)Cn1c(=O)n(C)c(=O)c2[nH]cnc21` [IBMX, reference compound], the “changes in BLA activity after treatment” value was “none showed changes in BLA activity”.

The same test, now with this note: Mus musculus; SMN2 promoter BLA assay, NSC-34 cells, 96-well plates.
With `O=C1C(=O)N(C(=O)NC2CCCCC2)c2ccc(Br)cc21` [VI-1], the EC50 (commonly the concentration needed to bring the measured effect to its halfway point) turned out to be 10 µM.

`Nc1nc(N)c2c(Sc3ccc(Cl)cc3)cccc2n1` [Compound I-2] returned an EC50 of 0.53 µM.

As to `CCOc1cccc2nc(N)nc(N)c12` [Compound I-6], a half-maximal effect (EC50) was put at 0.6 µM.

Regarding `Nc1nc(N)c2c(Oc3ccc(F)cc3)cccc2n1` [Compound I-3], the EC50 is 0.15 µM.

On to `Nc1nc(N)c2c(Oc3ccccc3)cccc2n1` [Compound I-5], for which the EC50 is 0.25 µM.

With `OCCNCCCOc1cccc(Cl)c1Cl` [VII-1], the midpoint of the response, the EC50, lay at 3 µM.

`CN(C)/C=C/c1c(C=O)c2cc([N+](=O)[O-])ccc2n1C` [Compound V-1, 2-((E)-2-(dimethylamino)vinyl)-1-methyl-5-nitro-1H-indole-3-carbaldehyde]: it took 6.8 µM to reach a half-maximal effect (EC50).

On to `CCCN(Cc1ccc([N+](=O)[O-])cc1)c1nc(O)nc(NC2CCCC2)n1` [VIII-1], for which the EC50 is 9 µM.

Staying with this test, now noted: clone SMN2BLAClone11.
Turning to `CCCC(=O)[O-].[Na+]` [sodium butyrate, reference compound], the “increase in BLA expression upon stimulation” value was 1.8 fold.
